Measurements reported in paper PMC11579541, “In vitro, in vivo, and in silico approaches for evaluating the preclinical DMPK profiles of ammoxetine, a novel chiral serotonin and norepinephrine reuptake inhibitor” (Frontiers in Pharmacology, 2024).
Like-named read-outs stand apart in the source and are kept apart here.

How the values were obtained:
CYP 2B6 = molecular target: T1, CYP 2B6 (Homo sapiens, UniProt P20813); test: CYP inhibition, cocktail-substrate method in HLM; type: in vitro ADME; settings: probe bupropion
T1 construct: 0.5 mg/mL HLM, 1 mmol/L NADPH, and a cocktail of 10 probe substrates for 9 CYP isoforms; tissue BD (Woburn, USA); host or cells: pooled human liver microsomes
T1 sequence (P20813 1-491): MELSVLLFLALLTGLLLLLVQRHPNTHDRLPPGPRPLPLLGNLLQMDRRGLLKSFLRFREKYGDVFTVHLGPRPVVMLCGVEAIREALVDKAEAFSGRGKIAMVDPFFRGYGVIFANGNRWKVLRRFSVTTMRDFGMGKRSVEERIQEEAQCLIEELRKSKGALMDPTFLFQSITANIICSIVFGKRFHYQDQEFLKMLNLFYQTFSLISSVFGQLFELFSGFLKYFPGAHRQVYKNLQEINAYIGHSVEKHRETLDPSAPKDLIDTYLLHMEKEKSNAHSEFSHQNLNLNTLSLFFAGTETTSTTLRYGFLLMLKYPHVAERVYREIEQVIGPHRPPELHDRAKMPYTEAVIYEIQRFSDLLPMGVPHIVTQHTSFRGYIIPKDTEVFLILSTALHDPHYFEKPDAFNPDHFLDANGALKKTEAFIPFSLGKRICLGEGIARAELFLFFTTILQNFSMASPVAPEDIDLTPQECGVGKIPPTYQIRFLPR
Experimental: To assess the CYP inhibition profiling of ammoxetine, a high-throughput assay based on the cocktail-substrate method was performed, as described in the literature ([Kim et al., 2005]; [Kozakai et al., 2014]). Microsomal incubations were conducted in triplicate for 30 min at 37°C in a reaction system (200 μL) consisting of […] potassium phosphate buffer (pH 7.4), 0.5 mg/mL HLM, 1 mmol/L NADPH, and a cocktail of 10 probe substrates for 9 CYP isoforms. The final concentration of each CYP-specific substrate was chosen to be close to the Michaelis-Menten constant (K m ) value of the respective substrate ([Kim et al., 2005]; [Lee et al., 2024]). For instance, phenacetin (CYP 1A2) was used at a concentration of 50 μmol/L, coumarin (CYP 2A6) at 5 μmol/L, bupropion (CYP 2B6) at 50 μmol/L, amodiaquine (CYP 2C8) at 5 μmol/L, tolbutamide (CYP 2C9) at 100 μmol/L, S-mephenytoin (CYP 2C19) at 100 μmol/L, dextromethorphan (CYP 2D6) at 5 μmol/L, chlorzoxazone (CYP 2E1) at 50 μmol/L, and testosterone and midazolam (CYP 3A4) at 50 μmol/L. Ammoxetine was evaluated at five concentrations: 0.1, 1, 10, 50, and 100 μmol/L. Additionally, a blank control without ammoxetine was included. The incubation was terminated by adding an equal volume of ice-cold acetonitrile/methanol (1:1, v/v) along with the IS, dexmedetomidine (1 ng/mL). After a 20-fold dilution, the mixture was centrifuged at 13,800×g for 10 min at 4°C. The supernatants were used to measure the levels of metabolites from the respective probe substrates using an LC-MS-MS method. The half-maximal inhibitory concentration (IC50) values were subsequently calculated.

[1] = PPB assay by ultrafiltration, dog plasma; type: in vitro ADME, beagle dogs; settings: beagle
Experimental: The PPB of ammoxetine was determined using the ultrafiltration method. Triplicate samples of rat, dog, or human plasma were spiked with ammoxetine at three final concentrations (50, 150, and 450 ng/mL). The spiked plasma samples were then incubated in a 37°C air-bath shaker for 1 h until equilibrium was reached. After incubation, 400 μL of the plasma samples were transferred to pre-saturated ultrafiltration devices. These devices were subsequently centrifuged at 13,800×g and 20°C for 20 min to separate the unbound ammoxetine. 100 μL of the test samples were taken and mixed with 100 μL of the IS, L-phencynonate (50 ng/mL), and 300 μL of methanol. Following centrifugation at 13,800×g for 10 min, the supernatants were used to determine the total and free concentrations of ammoxetine in the plasma (C t , C f ) using an LC-MS-MS method. The PPB rate (%) of ammoxetine was calculated by dividing (C t −C f ) by C t .

[2] = Tissue distribution study in rats; type: in vivo; settings: 20 mg/kg oral; for Tmax: read-out: time of peak concentration in tissue; for Kp: po, 20 mg/kg, read-out: AUC(0→t),tissue/AUC(0→t),blood
Experimental: A total of 24 rats were divided equally into four groups, with each group receiving a single oral gavage dose of 20 mg/kg of ammoxetine. Based on the rat PK analysis results for the 20 mg/kg dose, specific time points were selected for sampling, including before, at, and after the peak of ammoxetine plasma concentration (i.e., 0.25, 2, 6, and 24 h, respectively). At each designated time point after drug administration, the rats were euthanized, and approximately 1 mL of blood samples were collected into heparinized tubes. The heart, liver, spleen, lung, kidney, brain, intestine, stomach, testis, fat, and muscle tissues were rapidly removed after washing out the blood with ice-cold saline. The blood samples were then centrifuged at 6,000 r/min for 15 min to obtain plasma. The collected tissue samples were weighed and homogenized in distilled water to create a 10% homogenate. For further analysis, 100 μL of plasma or tissue homogenate samples were mixed with 300 μL of methanol and 100 μL of L-phencynonate (IS, 50 ng/mL). The mixture was vortexed for 1 min and then centrifuged at 13,800×g for 10 min. The resulting supernatants were used for LC-MS-MS analysis. Using the trapezoidal method, the tissue-to-blood AUC ratio ( AUC0→t,tissue/AUC0→t,blood ) was calculated based on the obtained AUC values. This ratio allowed for the comparison of differential tissue distribution of ammoxetine in rats.

## CNCC[C@H](Oc1cccc2c1OCO2)c1cccs1 [ammoxetine]
CYP 2B6
  IC50: > 100 µM
[1]; 50 ng/mL, read-out: Percentage of ammoxetine-protein binding rate (%) (converted)
  fraction unbound at 1 h, 50 ng/mL: 0.464
[1]; 150 ng/mL, read-out: Percentage of ammoxetine-protein binding rate (%) (converted)
  fraction unbound at 1 h, 150 ng/mL: 0.468
[1]; 450 ng/mL, read-out: Percentage of ammoxetine-protein binding rate (%) (converted)
  fraction unbound at 1 h, 450 ng/mL: 0.423
[1]; approximate range over 50-450 ng/mL, read-out: PPB rate
  fraction unbound at 1 h: 0.4 to 0.5
[2]
  Plasma exposure as share of total systemic exposure (AUC0→t,blood/AUC0→t,total): approximately 0.186%
[2]; brain
  AUC(0→t): 60,541.26 ± 19,438.07 ng/g·h
[2]; fat
  AUC(0→t): 38,592.32 ± 24,498.69 ng/g·h
[2]; heart
  AUC(0→t): 44,743.11 ± 11,086.06 ng/g·h
[2]; intestine
  AUC(0→t): 190,710.5 ± 52,982.23 ng/g·h
[2]; kidney
  AUC(0→t): 98,000.01 ± 25,400.16 ng/g·h
[2]; liver
  AUC(0→t): 208,081.20 ± 64,872.68 ng/g·h
[2]; lung
  AUC(0→t): 393,670.80 ± 31,407.40 ng/g·h
[2]; muscle
  AUC(0→t): 24,154.50 ± 6,583.59 ng/g·h
[2]; spleen
  AUC(0→t): 117,673.30 ± 31,479.36 ng/g·h
[2]; stomach
  AUC(0→t): 118,279.40 ± 37,565.21 ng/g·h
[2]; testis
  AUC(0→t): 69,347.84 ± 13,459.91 ng/g·h
[2]; rat, heart, spleen, lung, kidney, brain, fat and muscle
  Tmax: 2 h
[2]; rat, testis
  Tmax: 6 h
[2]; rat, brain, brain
  Kp: ~23.3
[2]; rat, fat, fat
  Kp: 14.2 ± 7.84
[2]; rat, heart, heart
  Kp: 17.1 ± 3.3
[2]; rat, intestine, intestine
  Kp: 75.6 ± 28.2
[2]; rat, kidney, kidney
  Kp: 37.7 ± 8.18
[2]; rat, liver, liver
  Kp: 81.4 ± 26.8
[2]; rat, lung, lung
  Kp: 155 ± 34.7
[2]; rat, muscle, muscle
  Kp: 9.31 ± 2.29
[2]; rat, plasma, blood
  AUC(0-t): 2620 ng·h/mL
[2]; rat, spleen, spleen
  Kp: 46 ± 14.2
[2]; rat, stomach, stomach
  Kp: 48.8 ± 27.6
[2]; rat, testis, testis
  Kp: 27.3 ± 8.12
